Literature values in patent US20170083675A1, “Method for Selecting Patient Subpopulation for Custirsen Treatment” (OncoGenex Technologies Inc., priority 2015, published 2017).

Tested on: metastatic castrate resistant prostate cancer (CRPC)
Details: second-line chemotherapy

CO[C@H]1C(=O)[C@]2(C)[C@@H](OC)C[C@H]3OC[C@@]3(OC(C)=O)[C@H]2[C@H](OC(=O)c2ccccc2)[C@]2(O)C[C@H](OC(=O)[C@H](O)[C@@H](NC(=O)OC(C)(C)C)c3ccccc3)C(C)=C1C2(C)C [cabazitaxel]
survival compared to mitoxantrone (in words): survival advantage
